{"source": "patent US8455510B2", "key": {"in vivo": {"assay": "in vivo", "assay_type": "in vivo", "details": "nude, mouse, in vivo"}, "[1]": {"system": "allogeneic antigen-induced mouse spleen lymphocytes", "assay": "Mixed lymphocyte culture, 3H-TdR incorporation", "assay_type": "cell-based, C57BL/6 and BALB/C mice", "method": "Preparation of Stimulator Cells: a Cell Suspension of Balb/C Mouse Spleen Lymphocytes was irradiated by cesium 137 at 3000 Rads using a Gamma radiometer (Gammacell 3000) to make the cells lose their proliferation ability. After washed by RPMI-1640 for 2 times, the cell concentration was adjusted to 5×10^6/ml.\nPreparation of responder cells: C57BL/6 mouse spleen lymphocytes were used as the responder cells, and the cell concentration was 5×10^6/ml.\nMixed lymphocyte culture: 50 μl cell suspension of C57BL/6 mouse spleen lymphocytes was inoculated on a 96-well plate, and 50 μl cell suspension of BALB/C mouse spleen lymphocytes treated by cesium 137 was added therein, followed by addition of 50 μl compound at different concentrations. The total volume for each well was 200 μl. If the total volume was less than 200 μl, it was supplemented with RMPI-1640 medium. The tests were divided into 3 groups, i.e., BALB/C mouse group, C57BL/6 mouse group and BALB/C and C57BL/6 mice mixed culture group. The test was carried out in triplicate wells for each concentration, and included control wells without the compound, with only the stimulator cells and with only the responder cells. The 96-well plate was incubated in an incubator at 37° C. with 5% CO2 for 3 to 5 days. 8 hours before the end of incubation, 25 μl of ^3H-thymidine (10 μCi/ml) was added in each well. After the incubation was completed, cells were harvested by a cell harvester on a glass fiber film. After addition of a scintillation fluid, the amount of ^3H-TdR incorporated in cell DNA was determined by a Beta cell counter (MicroBeta Trilux, PerkinElmer), and the cell proliferation was represented as a cpm value."}, "[2]": {"system": "normal mouse spleen T lymphocytes induced by ConA", "assay": "3H-TdR incorporation, ConA-induced T lymphocyte proliferation", "assay_type": "cell-based, BALB/c mice", "details": "read-out: IC50, proliferation of T lymphocytes induced by ConA", "method": "^3H-thymidine incorporation was adopted to measure the effect of the in vitro administered compound on the proliferation function of the spleen lymphocytes of normal mice induced by a mixed culture of mitogen/allogeneic mouse spleen lymphocytes, and evaluate the in vitro immunosuppressive activity of the compound.\nMeasurement of the effects of compounds on the proliferation function of mouse spleen lymphocytes induced by mitogen by ^3H-TdR incorporation: 100 μl cell suspension of mouse spleen lymphocytes was inoculated on a 96-well plate (4×10^5 per well), followed by addition of 50 μl of ConA (final concentration: 5 μg/ml), 50 μl of LPS (final concentration: […]) or 50 μl of compound at different concentrations. The total volume of each well was 200 μl. The test was carried out in triplicate wells for each concentration, and included control wells without ConA/LPS or the compound. After the 96-well plate was placed in an incubator at 37° C. with 5% CO2 for 48 hours, 25 μl of ^3H-thymidine (10 μCi/ml) was added in each well 8 hours before the end of incubation. […] The amount of ^3H-TdR incorporated in cell DNA was determined by a Beta cell counter (MicroBeta Trilux, PerkinElmer), and the cell proliferation was represented as a cpm value."}, "[3]": {"system": "SRBC-induced specific antibody-producing cells in spleen lymphocytes", "assay": "Quantitative hemolysis of sheep red blood cells (QHS) assay", "assay_type": "in vivo, BALB/c mice", "details": "1.5 mg/kg, intraperitoneal injection", "description": "It is a classic experimental method to determine the generation of antigen-specific antibody with SRBC hemolytic reaction in SRBC-induced mouse humoral immunity model. The quantitative hemolysis of sheep red blood cells (QHS) assay is an experimental method for evaluating the amount of the antibody secreted, which is based on the principle that the sheep red blood cells are hemolyzed by the anti-SRBC specific antibody secreted by B lymphocytes (plasma cells) to release haemoglobin. After mice are sensitized by sheep red blood cells (SRBC), there will appear cells which can secrete specific antibody in mouse spleen lymphocytes. The Antibody secreted by such cells could hemolyze SRBC with the synergistic action of the complement. Therefore, the amount of the cells secreting the specific antibody can be evaluated by determining the hemolytic degree by spectrophotometry. […] BALB/c mice were randomly divided into 5 groups with 6 mice in each group. […] When immunized, the mice in each group were administered by intraperitoneal injection once daily until 5 days after the immunization. The mice in model control group were administered daily with the solvent. 2. […] Each mice was introperitoneally injected with 0.2 ml of the diluted SRBC for sensitizing. 3. QHS assay was carried out 5 days after the sensitization: The mouse spleen was collected to produce the spleen lymphocytes. […] The mixture was kept at 37° C. for 1 hour, and then centrifugated at 3000 rpm for 10 min. […] The quantitative hemolysis of sheep red blood cells (QHS) assay uses the amount of haemoglobin (OD value) released from the hemolysis of red blood cells by the antibody secreted by B cells to indicate the level of humoral immunity in body. Inhibition of specific antibody-secreting cells %=(OD of model control group-OD of administration group)/(OD of model control group-OD of normal control group)"}}}
{"molecule": "CO[C@H]1C[C@@H]2CC[C@@H](C)[C@@](O)(O2)C(=O)C(=O)N2CCCC[C@H]2C(=O)O[C@H]([C@H](C)C[C@@H]2CC[C@@H](O)[C@H](OC)C2)CC(=O)[C@H](C)/C=C(\\C)[C@@H](O)[C@@H](OC)C(=O)[C@H](C)C[C@H](C)/C=C/C=C/C=C/1C", "note": "[Rapamycin]", "values": [{"measurement": "AUC0-t (ng · h/g or ng · h/ml)", "setting": "in vivo", "result": 1455, "unit": "ng·h/mL"}, {"measurement": "Sirolimus concentration, Liver, Mean Value", "setting": "in vivo; 0.5 h", "result": 473, "unit": "ng/g"}, {"measurement": "Sirolimus concentration, Tumor, Mean Value", "setting": "in vivo; 0.5 h", "result": 20.6, "unit": "ng/g"}, {"measurement": "Sirolimus concentration, Blood Plasma, Mean Value", "setting": "in vivo; 2 h", "result": 121, "unit": "ng/mL"}, {"measurement": "Sirolimus concentration, Liver, Mean Value", "setting": "in vivo; 2 h", "result": 193, "unit": "ng/g"}, {"measurement": "Sirolimus concentration, Tumor, Mean Value", "setting": "in vivo; 2 h", "result": 50.8, "unit": "ng/g"}, {"measurement": "Sirolimus concentration, Blood Plasma, Mean Value", "setting": "in vivo; 5 h", "result": 84.7, "unit": "ng/mL"}, {"measurement": "Sirolimus concentration, Liver, Mean Value", "setting": "in vivo; 5 h", "result": 139, "unit": "ng/g"}, {"measurement": "Sirolimus concentration, Tumor, Mean Value", "setting": "in vivo; 5 h", "result": 41.7, "unit": "ng/g"}, {"measurement": "Sirolimus concentration, Liver, Mean Value", "setting": "in vivo; 12 h", "result": 54.2, "unit": "ng/g"}, {"measurement": "Sirolimus concentration, Tumor, Mean Value", "setting": "in vivo; 12 h", "result": 33.2, "unit": "ng/g"}, {"measurement": "Sirolimus concentration, Blood Plasma, Mean Value", "setting": "in vivo; 48 h", "result": 4.04, "unit": "ng/mL"}, {"measurement": "Sirolimus concentration, Liver, Mean Value", "setting": "in vivo; 48 h", "result": 15.8, "unit": "ng/g"}, {"measurement": "Sirolimus concentration, Tumor, Mean Value", "setting": "in vivo; 48 h", "result": 25.9, "unit": "ng/g"}, {"measurement": "CPM Mean value", "setting": "[1]; 0.1342 nM", "result": 4788}, {"measurement": "CPM Mean value", "setting": "[1]; 0.3355 nM", "result": 3157}, {"measurement": "CPM Mean value", "setting": "[1]; 0.8389 nM", "result": 1955}, {"measurement": "CPM Mean value", "setting": "[1]; 2.0972 nM", "result": 1638}, {"measurement": "CPM Mean value", "setting": "[1]; 32.768 nM", "result": 956}, {"measurement": "CPM Mean value", "setting": "[1]; 81.9 nM", "result": 1012}, {"measurement": "CPM Mean value", "setting": "[1]; 204.8 nM", "result": 848}, {"measurement": "CPM Mean value", "setting": "[1]; 512 nM", "result": 1068}, {"measurement": "CPM Mean value", "setting": "[1]; 1280 nM", "result": 967}, {"measurement": "CPM Mean value", "setting": "[1]; 3200 nM", "result": 840}, {"measurement": "CPM Mean value", "setting": "[1]; 8000 nM", "result": 780}, {"measurement": "CPM Mean value", "setting": "[1]; 20000 nM", "result": 362}, {"measurement": "inhibition at 0.0001342 µM", "setting": "[1]; Mus musculus, Lymphocyte, 0.1342 nM", "result": 35, "unit": "%"}, {"measurement": "inhibition at 0.0003355 µM", "setting": "[1]; Mus musculus, Lymphocyte, 0.3355 nM", "result": 57, "unit": "%"}, {"measurement": "inhibition at 0.0008389 µM", "setting": "[1]; Mus musculus, Lymphocyte, 0.8389 nM", "result": 73, "unit": "%"}, {"measurement": "inhibition at 0.0020972 µM", "setting": "[1]; Mus musculus, Lymphocyte, 2.0972 nM", "result": 78, "unit": "%"}, {"measurement": "inhibition at 0.0052429 µM", "setting": "[1]; Mus musculus, Lymphocyte, 5.2429 nM", "result": 83, "unit": "%"}, {"measurement": "inhibition at 0.013107 µM", "setting": "[1]; Mus musculus, Lymphocyte, 13.107 nM", "result": 83, "unit": "%"}, {"measurement": "inhibition at 0.032768 µM", "setting": "[1]; Mus musculus, Lymphocyte, 32.768 nM", "result": 87, "unit": "%"}, {"measurement": "inhibition at 0.0819 µM", "setting": "[1]; Mus musculus, Lymphocyte, 81.9 nM", "result": 86, "unit": "%"}, {"measurement": "inhibition at 0.2048 µM", "setting": "[1]; Mus musculus, Lymphocyte, 204.8 nM", "result": 88, "unit": "%"}, {"measurement": "inhibition at 0.512 µM", "setting": "[1]; Mus musculus, Lymphocyte, 512 nM", "result": 85, "unit": "%"}, {"measurement": "inhibition at 1.28 µM", "setting": "[1]; Mus musculus, Lymphocyte, 1280 nM", "result": 87, "unit": "%"}, {"measurement": "inhibition at 3.2 µM", "setting": "[1]; Mus musculus, Lymphocyte, 3200 nM", "result": 89, "unit": "%"}, {"measurement": "inhibition at 8 µM", "setting": "[1]; Mus musculus, Lymphocyte, 8000 nM", "result": 89, "unit": "%"}, {"measurement": "inhibition at 20 µM", "setting": "[1]; Mus musculus, Lymphocyte, 20000 nM", "result": 95, "unit": "%"}, {"measurement": "IC50", "setting": "[2]", "result": 196, "unit": "nM"}, {"measurement": "Inhibition of Specific Antibody-secreting cells %", "setting": "[3]", "result": 100, "unit": "%"}, {"measurement": "Quantitative hemolysis OD Value", "setting": "[3]; model control 0.3887, normal control 0.3036", "result": 0.3012}]}
